“And” between values parts separate entries of the source, which are not always exact repeats. Equal values may be shown once.
How the values were obtained:
Format in all cases: in vivo
corn (CPI, Zea mays) = assay: Test A postemergence, corn; conditions: POST, 0 to 100 scale, approximately 10 d
Description: (§1) Seeds of plant species selected from barnyardgrass (BYG, Echinochloa crus-galli), kochia (KOC, Kochia scoparia), ragweed (common ragweed, Ambrosia elatior), ryegrass, Italian (RGI, Lolium multiflorum), foxtail, giant (FTI, Setaria faberii), foxtail, green (Setaria viridis) and pigweed (PWR, Amaranthus retroflexus) were planted into a blend of loam soil and sand and treated preemergence with a directed soil spray using test chemicals formulated in a non-phytotoxic solvent mixture which included a surfactant. At the same time, plants selected from these weed species and also wheat (WWT, Triticum aestivum), corn (CPI, Zea mays), blackgrass (BKG, Alopecurus myosuroides) and galium (GAL, catchweed bedstraw, Galium aparine) were planted in pots containing the same blend of loam soil and sand and treated with postemergence applications of test chemicals formulated in the same manner Plants ranged in height from 2 to 10 cm and were in the one- to two-leaf stage for the postemergence treatment. Treated plants and untreated controls were maintained in a greenhouse for approximately 10 d, after which time all treated plants were compared to untreated controls and visually evaluated for injury. Plant response ratings, summarized in Tables 1-4, are based on a 0 to 100 scale where 0 is no effect and 100 is complete control. A dash (−) response means no test result. The ratings are followed by a letter representing the symptomology where S is Albinism, C is Chlorosis, G is Growth Inhibition and E is Emergence.

[1] = test system: wheat (WWT, Triticum aestivum); assay: Test A postemergence, wheat; conditions: POST, 0 to 100 scale, approximately 10 d, listed as drawing 31
Description: as §1

[2] = test system: galium (GAL, catchweed bedstraw, Galium aparine); assay: Test A postemergence, galium; conditions: POST, 0 to 100 scale, approximately 10 d
Description: as §1

[3] = test system: kochia (KOC, Kochia scoparia); assay: Test A postemergence, kochia; conditions: POST, 0 to 100 scale, approximately 10 d
Description: as §1

[4] = test system: pigweed (PWR, Amaranthus retroflexus); assay: Test A postemergence, pigweed; conditions: POST, 0 to 100 scale, approximately 10 d
Description: as §1

[5] = test system: ragweed (common ragweed, Ambrosia elatior); assay: Test A postemergence, ragweed; conditions: POST, 0 to 100 scale, approximately 10 d
Description: as §1

[6] = test system: blackgrass (BKG, Alopecurus myosuroides); assay: Test A postemergence, blackgrass; conditions: POST, 0 to 100 scale, approximately 10 d, listed as drawing 31
Description: as §1

[7] = test system: ryegrass, Italian (RGI, Lolium multiflorum); assay: Test A postemergence, Italian ryegrass; conditions: POST, 0 to 100 scale, approximately 10 d, listed as drawing 31
Description: as §1

[8] = test system: barnyardgrass (BYG, Echinochloa crus-galli); assay: Test A postemergence, barnyardgrass; conditions: POST, 0 to 100 scale, approximately 10 d, listed as drawing 31
Description: as §1

[9] = test system: foxtail, giant (FTI, Setaria faberii); assay: Test A postemergence, giant foxtail; conditions: POST, 0 to 100 scale, approximately 10 d, listed as drawing 31
Description: as §1

[10] = test system: kochia (KOC, Kochia scoparia); assay: Test A preemergence, kochia; conditions: PRE, 0 to 100 scale, approximately 10 d
Description: as §1

[11] = test system: pigweed (PWR, Amaranthus retroflexus); assay: Test A preemergence, pigweed; conditions: PRE, 0 to 100 scale, approximately 10 d
Description: as §1

[12] = test system: ragweed (common ragweed, Ambrosia elatior); assay: Test A preemergence, ragweed; conditions: PRE, 0 to 100 scale, approximately 10 d, listed as drawing 31
Description: as §1

[13] = test system: ryegrass, Italian (RGI, Lolium multiflorum); assay: Test A preemergence, Italian ryegrass; conditions: PRE, 0 to 100 scale, approximately 10 d
Description: as §1

[14] = test system: barnyardgrass (BYG, Echinochloa crus-galli); assay: Test A preemergence, barnyardgrass; conditions: PRE, 0 to 100 scale, approximately 10 d
Description: as §1

[15] = test system: foxtail, giant (FTI, Setaria faberii); assay: Test A preemergence, giant foxtail; conditions: PRE, 0 to 100 scale, approximately 10 d
Description: as §1

[16] = 31 g ai/ha, listed as drawing 31
[17] = 16 g ai/ha, listed as drawing 31
[18] = 62 g ai/ha, listed as drawing 31
[19] = 125 g ai/ha, listed as drawing 31

## CCC(=O)Oc1c(Cl)nn(C)c(=O)c1-c1c(C)ccc2ccccc12 (racemic) [5 (Enantiomer 5A)]
Corn (CPI, Zea mays); 16 g ai/ha
  Plant response rating CPI: 0
Corn (CPI, Zea mays); [16]
  Plant response rating CPI: 0
Corn (CPI, Zea mays); 62 g ai/ha
  Plant response rating CPI: 0
[1]; 16 g ai/ha
  Plant response rating WWT: 0
[1]; 31 g ai/ha
  Plant response rating WWT: 0
[1]; 62 g ai/ha
  Plant response rating WWT: 0
[1]; 125 g ai/ha
  Plant response rating WWT: 0
[2]; 16 g ai/ha
  Plant response rating GAL: 90 S
[2]; [16]
  Plant response rating GAL: 90 S
[2]; 62 g ai/ha
  Plant response rating GAL: 100 S
[2]; 125 g ai/ha
  Plant response rating GAL: 100 S
[3]; [17]
  Plant response rating KOC: 70 S
[3]; 31 g ai/ha
  Plant response rating KOC: 70 S
[3]; [18]
  Plant response rating KOC: 80 S
[3]; [19]
  Plant response rating KOC: 80 S and 70 S
[4]; [17]
  Plant response rating PWR: 80 S
[4]; 31 g ai/ha
  Plant response rating PWR: 90 S
[4]; 62 g ai/ha
  Plant response rating PWR: 90 S
[4]; [19]
  Plant response rating PWR: 90 S
[5]; [17]
  Plant response rating RWC: 80 S
[5]; 31 g ai/ha
  Plant response rating RWC: 90 S
[5]; 62 g ai/ha
  Plant response rating RWC: 90 S
[5]; [19]
  Plant response rating RWC: 90 S
[6]; 16 g ai/ha
  Plant response rating BKG: 0
[6]; 31 g ai/ha
  Plant response rating BKG: 0
[6]; 62 g ai/ha
  Plant response rating BKG: 0
[7]; 16 g ai/ha
  Plant response rating RGI: 10 S
[7]; 62 g ai/ha
  Plant response rating RGI: 50 S
[8]; 16 g ai/ha
  Plant response rating BYG: 0
[8]; 62 g ai/ha
  Plant response rating BYG: 0
[8]; 125 g ai/ha
  Plant response rating BYG: 30 S and 20 S
[9]; 16 g ai/ha
  Plant response rating FTI: 10 C
[9]; 31 g ai/ha
  Plant response rating FTI: 10 S
[9]; 62 g ai/ha
  Plant response rating FTI: 10 S
[9]; 125 g ai/ha
  Plant response rating FTI: 20 S and 30 S
[10]; 16 g ai/ha
  Plant response rating KOC: 10 C
[10]; [18]
  Plant response rating KOC: 70 S
[10]; [19]
  Plant response rating KOC: 80 S
[11]; [17]
  Plant response rating PWR: 10 C
[11]; 31 g ai/ha
  Plant response rating PWR: 60 C and 100 C
[11]; [18]
  Plant response rating PWR: 90 C
[12]; 16 g ai/ha
  Plant response rating RWC: 0
[12]; 62 g ai/ha
  Plant response rating RWC: 90 C
[12]; 125 g ai/ha
  Plant response rating RWC: 100 C and 90 C
[13]; 16 g ai/ha
  Plant response rating RGI: 0
[13]; 31 g ai/ha
  Plant response rating RGI: 0
[13]; [18]
  Plant response rating RGI: 0
[13]; [19]
  Plant response rating RGI: 30 S and 20 S
[14]; 16 g ai/ha
  Plant response rating BYG: 0
[14]; 31 g ai/ha
  Plant response rating BYG: 0
[14]; 62 g ai/ha
  Plant response rating BYG: 0
[15]; 16 g ai/ha
  Plant response rating FTI: 0
[15]; [18]
  Plant response rating FTI: 0
